Results on 33 molecules are retold here after ChEMBL document CHEMBL1770115, “Fused heterocyclic M1 positive allosteric modulators” (Bioorg Med Chem Lett, 2011).

Activity calls are given as the source filed them. No cut-off for these calls is given here.

Series [1] addresses T1, Muscarinic acetylcholine receptor M1 (Homo sapiens) (UniProt P11229).
T1 sequence (whole entry): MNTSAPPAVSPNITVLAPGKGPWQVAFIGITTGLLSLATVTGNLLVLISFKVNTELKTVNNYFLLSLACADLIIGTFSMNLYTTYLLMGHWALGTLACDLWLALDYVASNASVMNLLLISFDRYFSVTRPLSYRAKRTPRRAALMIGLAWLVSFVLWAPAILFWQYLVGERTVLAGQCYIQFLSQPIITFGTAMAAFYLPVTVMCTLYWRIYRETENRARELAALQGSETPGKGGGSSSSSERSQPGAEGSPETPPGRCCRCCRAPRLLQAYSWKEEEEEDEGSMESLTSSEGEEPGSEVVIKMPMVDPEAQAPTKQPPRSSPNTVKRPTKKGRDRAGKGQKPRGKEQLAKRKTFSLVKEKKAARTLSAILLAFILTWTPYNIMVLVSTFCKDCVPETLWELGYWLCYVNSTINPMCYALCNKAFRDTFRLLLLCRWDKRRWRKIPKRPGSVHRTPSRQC
Kind of series: Positive allosteric modulation of human muscarinic M1 receptor expressed in CHO cells assessed as effect on acetylcholine-induced calcium mobilization by FLIPR assay. Format: functional, cell-based.

In a further series the test system is Plasma. Kind of series: Plasma concentration in Sprague-Dawley rat at 10 mg/kg, po. Format: ADME, organism-based. Set-up: dose 10 mg/kg, route oral. To be noted: in vivo.
For the next series, the system named is Brain. Put plainly: Drug concentration in Sprague-Dawley rat barin at 10 mg/kg, po. The format is ADME, organism-based. To be noted: in vivo, read-out: Drug uptake. Set-up: dose 10 mg/kg, route oral.
The next series concerns Cerebrospinal fluid. Kind of series: Drug concentration in Sprague-Dawley rat cerebrospinal fluid at 10 mg/kg, po. The format is ADME, organism-based. Set-up: dose 10 mg/kg, route oral. To be noted: in vivo, read-out: Drug uptake.
A short description of series [2]: Ratio of drug level in brain to plasma in Sprague-Dawley rat at 10 mg/kg, po. The format is ADME, organism-based. On the set-up: dose 10 mg/kg, route oral.
Series [3] deals with T1, Muscarinic acetylcholine receptor M1 (Homo sapiens). Put plainly: Positive allosteric modulation of human muscarinic M1 receptor expressed in CHO cells assessed as potentiation of acetylcholine-induced calcium mobilization at 1 uM by FLIPR assay relative to control. Format: functional, cell-based.
Series [4] has the same target. Put plainly: Agonist activity at human muscarinic M1 receptor expressed in CHO cells assessed as increase of calcium mobilization at 100 uM by FLIPR assay. Format: functional, cell-based.

Consider `N#Cc1ccc(/C=C/Cn2cc(C(=O)O)c(=O)c3cccc(F)c32)cc1`, for which, in series [1], the IP is 1000 nM.
Take `Cn1ncc2cc(Cn3cc(C(=O)O)c(=O)c4c(F)cccc43)ccc21`: the IP in series [1] was determined as 72 nM. The concentration with Plasma was found to be 13200 nM; with Brain, 538 nM; in the series on Cerebrospinal fluid it was 155 nM. In series [2], the Kp is 0.04.
In the same order, the values of `O=C(O)c1cn(Cc2ccc3c(c2)OCCO3)c2cccc(F)c2c1=O` are 84 nM, 3700 nM, 577 nM, 119 nM and 0.15.
On to `O=C(O)c1cn(C/C=C/c2cccc(F)c2)c2c(F)cccc2c1=O`, for which the IP in series [1] was found to be 370 nM.
Take `COc1cccc(/C=C/Cn2cc(C(=O)O)c(=O)c3cccc(F)c32)c1`: the IP in series [1] turned out to be 1400 nM.
As for `O=C(O)c1cn(Cc2ccc3ccccc3c2)c2cccc(F)c2c1=O`, the IP in series [1] turned out to be 69 nM. In addition, the concentration in the series with Plasma worked out at 676 nM; in the series on Brain it was 178 nM; in the series with Cerebrospinal fluid it was 18 nM. The Kp in series [2] was 0.26. For the same molecule, the fold change (FC) in series [3] amounted to 100. Moreover, the outcome in series [4] was Active.
For `Cc1ccccc1/C=C/Cn1cc(C(=O)O)c(=O)c2cccc(F)c21`, in series [1], the IP was above 10000 nM.
Same read-out and setting: under `O=C(O)c1cn(Cc2ccc3ccccc3n2)c2cccc(F)c2c1=O` stands 897 nM.
With `COc1ccc(/C=C/Cn2cc(C(=O)O)c(=O)c3cccc(F)c32)cc1`, the IP in series [1] is 380 nM.
For `O=C(O)c1cn(CC#Cc2ccccc2)c2c(F)cccc2c1=O`, the IP in series [1] was 3400 nM.
For the molecule `O=C(O)c1cn(Cc2ccc3c(c2)CCC3O)c2cccc(F)c2c1=O` (configuration not stated), the IP in series [1] is 97 nM.
For the molecule `O=C1Cc2cc(Cn3cc(C(=O)O)c(=O)c4c(F)cccc43)ccc2N1`, in series [1], the IP came out at 81 nM.
Regarding `O=C(O)c1cn(Cc2ccc3ncccc3c2)c2cccc(F)c2c1=O`, the IP in series [1] was determined as 459 nM.
Consider `O=C(O)c1cn(C/C=C/c2ccc(F)cc2)c2c(F)cccc2c1=O`, for which, in series [1], the IP worked out at 120 nM.
As to `O=C(O)c1cn(Cc2nc3ccccc3s2)c2cccc(F)c2c1=O`, the IP in series [1] is 1800 nM.
Consider `CN1CCCc2cc(Cn3cc(C(=O)O)c(=O)c4c(F)cccc43)ccc21`, for which the IP in series [1] was determined as 624 nM.
The same measure, in the same setting: under `O=C(O)c1cn(C/C=C/c2ccccc2F)c2c(F)cccc2c1=O` stands 240 nM; under `CN1CCN(C)c2cc(Cn3cc(C(=O)O)c(=O)c4c(F)cccc43)ccc21`, 3800 nM; under `O=C(O)c1cn(C/C=C/c2ccccc2)c2c(F)cccc2c1=O`, 270 nM.
With `O=C(O)c1cn(Cc2ccc3[nH]ncc3c2)c2cccc(F)c2c1=O`, in series [1], the IP was determined as 104 nM.
The same measure, in the same setting: under `O=C(O)c1cn(C/C=C/c2ccncc2)c2c(F)cccc2c1=O` stands 610 nM.
Take `O=C(O)c1cn(C/C=C/c2ccc(Cl)cc2)c2c(F)cccc2c1=O`: in series [1], the IP turned out to be 320 nM.
On to `CN1CCc2cc(Cn3cc(C(=O)O)c(=O)c4c(F)cccc43)ccc21`, for which the IP in series [1] was above 10000 nM.
With `CN(C)c1ccc(/C=C/Cn2cc(C(=O)O)c(=O)c3cccc(F)c32)cc1`, in series [1], the IP was found to be 860 nM.
On to `O=C(O)c1cn(Cc2ccc3[nH]c(=O)[nH]c3c2)c2cccc(F)c2c1=O`, for which the IP in series [1] came to 617 nM.
Same read-out and setting: in the case of `O=C(O)c1cn(Cc2ccc3ccccc3c2)c2c(F)cccc2c1=O` it was 80 nM; in that of `COc1ccccc1/C=C/Cn1cc(C(=O)O)c(=O)c2cccc(F)c21`, above 10000 nM.
Still for that read-out and setting: in the case of `O=C(O)c1cn(C/C=C/c2ccccn2)c2c(F)cccc2c1=O` it was 5200 nM; in that of `Cn1cc2cc(Cn3cc(C(=O)O)c(=O)c4c(F)cccc43)ccc2n1`, 142 nM.
Same read-out and setting: in the case of `Cc1ccc(/C=C/Cn2cc(C(=O)O)c(=O)c3cccc(F)c32)cc1` it was 910 nM.
Take `O=C(O)c1cn(Cc2ccc3ccccc3c2)c2c(F)ccc(F)c2c1=O`: the IP in series [1] came out at 266 nM.
Still for that read-out and setting: in the case of `O=C(O)c1cn(C/C=C/c2cccnc2)c2c(F)cccc2c1=O` it was above 10000 nM.
Turning to `Cc1cccc(/C=C/Cn2cc(C(=O)O)c(=O)c3cccc(F)c32)c1`, the IP in series [1] turned out to be 250 nM.
